# Columns and labels:
# [1] = tested on: Mycobacterium tuberculosis H37Rv; test: Inhibition of Mycobacterium tuberculosis H37Rv chorismate mutase expressed in Escherichia coli assessed as inhibition of prephenate formation at 50 uM after 1 to 5 mins by spectrophotometry
# [2] = tested on: Mycobacterium tuberculosis H37Rv; test: (§1) Inhibition of Mycobacterium tuberculosis H37Rv chorismate mutase expressed in Escherichia coli assessed as inhibition of prephenate formation after 1 to 5 mins by spectrophotometry
# [3] = as §1
Compound,inhibition [1] [%],inhibition [2],IC50 [3] [µM]
O=c1c2ccccc2nnn1-c1ccc2ccccc2c1,40,,
CCCc1nn(C)c2c(=O)n(-c3ccc4ccccc4c3)nnc12,61,Dose-dependent effect,15.1
O=c1c2c3c(sc2nnn1-c1ccc(F)cc1)CCCC3,25,,
O=c1c2c3c(sc2nnn1-c1ccc2ccccc2c1)CCCC3,37,,
COc1cc(CCNc2c([N+](=O)[O-])cc(C(=O)O)cc2S(N)(=O)=O)cc(OC)c1,,,< 10
CCCc1nn(C)c2c(=O)n(-c3ccccc3)nnc12,10,,
CCCc1nn(C)c2c(=O)n(-c3ccc(F)cc3)nnc12,24,,
CCCc1nn(C)c2c(=O)n(-c3cccc(Cl)c3)nnc12,30,,
O=c1c2ccccc2nnn1-c1ccccc1,12,,
